According to article PMC7604414, “Favipiravir at high doses has potent antiviral activity in SARS-CoV-2−infected hamsters, whereas hydroxychloroquine lacks activity” (Proceedings of the National Academy of Sciences of the …, 2020):
Values joined by “and” are separate entries in the source; they are usually repeats but may differ in a detail not shown here. Identical values can stand only once. Like-named read-outs stand apart in the source and are kept apart here.

Key:
SARS-CoV-2 [1] = tested on: SARS-CoV-2; set-up: method as in ref 13 = [13]; 13 P. Maisonnasse ., Hydroxychloroquine in the treatment and prophylaxis of SARS-CoV-2 infection in non-human primates . Research Square:10.21203/RS.3.RS-27223/V1 (6 May 2020) .; details: therapeutic and prophylactic setting; cited from earlier work
[2] = Calculation of HCQ blood, total lung and lung compartment concentrations; set-up: species or system Syrian hamsters
Protocol: Starting from the measured total trough plasma concentrations measured at killing after 4 d or 5 d of HCQ treatment, total lung cytosolic concentrations of HCQ were calculated. First, the mean trough total plasma concentration of HCQ was used as a starting point to estimate the whole blood concentrations considering a blood to plasma ratio of 7.2, as reported by Tett et al. ([50]) and as mentioned in the summary of product characteristics of Plaquenil (Sanofi) (Eq. 1). whole blood concentration=plasma concentration×7.2.
Relying on the experimental Kp (tissue versus whole blood partition coefficient) values in rats, the total lung tissue concentrations of HCQ were determined. Based on the partition values as reported by Wei et al. ([51]), a lung Kp value of 50 was applied to estimate the total lung concentration (Eq. 2). total lung tissue concentration=mean blood concentration×50.
Based on these calculations, lung cytosolic HCQ concentrations correspond to 6% of the total lung tissue concentration (Eq. 3). total cytosolic lung tissue concentration=total lung tissue concentration×0.06.

SARS-CoV-2 [3] = experiment: Reported in vitro EC50 values of HCQ against SARS-CoV-2; format: cell-based; details: equated to 3 times the reported EC50
[4] = set-up: method as in ref 51 (Wei et al.); details: rats, ref 51 (Wei et al.); cited from earlier work
[5] = value applied in pH partition calculation; cited from earlier work
[6] = HCQ plasma trough concentrations in hamsters (HPLC-MS); details: female, Syrian, hamster, intraperitoneal, 50 mg/kg/d
SARS-CoV-2 [7] = details: interquartile range of 5.4 (25 to 75%); read-out: reported in vitro EC50, median value; cited from earlier work
SARS-CoV-2 [8] = details: hamster, in vivo
SARS-CoV-2 [9] = tested on: SARS-CoV-2; set-up: method as in PMID 32444382; details: cited from earlier work
SARS-CoV-2 [10] = tested on: SARS-CoV-2; set-up: method as in PMID 32492293; details: postexposure prophylaxis, high doses of HCQ; cited from earlier work
[11] = set-up: method as in ref 50 (Tett et al.) and summary of product characteristics of Plaquenil; details: ref 50 (Tett et al.) and summary of product characteristics of Plaquenil; cited from earlier work
COVID-19 [12] = tested on: COVID-19; set-up: method as in ref 32 = [32]; 32 P. W. Horby , M. Landray , “Press release: No clinical benefit from use of hydroxychloroquine in hospitalised patients with COVID-19” (University of Oxford, 2020) .; details: patients admitted with COVID-19; cited from earlier work
[13] = Favipiravir plasma trough concentrations in hamsters; format: in vivo, Syrian hamsters; details: for concentration at 16 h after last treatment: female, hamster, plasma
SARS-CoV-2 [14] = tested on: SARS-CoV-2; set-up: method as in PMID 33741945; details: cited from earlier work
[15] = set-up: method as in PMID 32405421; details: cited from earlier work
[16] = human, in vivo; cited from earlier work
COVID-19 [17] = tested on: COVID-19; set-up: method as in ref 39 = [39]; 39 C. Chen ., Favipiravir versus arbidol for COVID-19: A randomized clinical trial . medRxiv:10.1101/2020.03.17.20037432 (20 March 2020) .; details: cited from earlier work

## CCN(CCO)CCCC(C)Nc1ccnc2cc(Cl)ccc12 (stereo not shown) [HCQ, hydroxychloroquine]
SARS-CoV-2 [1]
  viral loads in SARS-CoV-2-infected cynomolgus macaques: did not result in a significant decrease
[2]; pH partition theory, relative lung compartment volumes
  lung cytosolic HCQ concentration as share of total lung tissue concentration: 6%
[2]; trough, HCQ sulfate 50 mg/kg/d
  endosomal/lysosomal HCQ concentration: 1.9 mM
  interstitial concentration in lung: 5.4 µM
[2]; trough, HCQ sulfate 50 mg/kg/d, blood concentration × 50
  total lung concentration (Eq. 2): 90.2 ± 69.4 µM
[2]; trough, HCQ sulfate 50 mg/kg/d, plasma concentration × 7.2
  whole blood concentration (Eq. 1): 1.8 ± 1.4 µM
[2]; trough, HCQ sulfate 50 mg/kg/d, total lung × 0.06
  total cytosolic lung tissue concentration (Eq. 3): 5.4 ± 4.2 µM
SARS-CoV-2 [3]
  estimated EC90 (3 times the EC50), target lung concentration: 13.5 ± 16.3 µM
[4]
  lung Kp (tissue versus whole blood partition coefficient): 50
[5]
  pKa: 9.67
[6]
  concentration at 4 d post infection (at killing): 84 ng/mL and 300 nM
SARS-CoV-2 [7]
  EC50: 4.5 µM
SARS-CoV-2 [8]
  radiological improvement (micro-CT) vs nontreated animals: no radiological improvement
  reduction in viral RNA load in the ileum or stool: no reduction
  reduction of infectious virus titers in the lungs: no significant reduction
  reduction of viral RNA in lung vs untreated infected hamsters: 0.3 log10 viral RNA copies per mg of lung
  weight loss: < 5%
SARS-CoV-2 [9]
  virus titers in SARS-CoV-2-infected ferrets: not able to significantly reduce
SARS-CoV-2 [10]
  prevention of SARS-CoV-2 infection or COVID-19-like disease: did not prevent
[11]
  blood to plasma ratio: 7.2
COVID-19 [12]
  mortality or duration of hospital stay: did not result in a beneficial effect

## NC(=O)c1nc(F)c[nH]c1=O [favipiravir]
[13]; Syrian, intraperitoneal, 1000 mg/kg/d, favipiravir 1,000 mg/kg/d i.p. BID for 4 d, read-out: plasma trough level
  concentration at 16 h after last treatment: ~4400 ng/mL
[13]; intraperitoneal, 1000 mg/kg/d, favipiravir 1,000 mg/kg/d i.p. BID for 4 d, read-out: plasma trough level
  concentration at 16 h after last treatment: 4400 ± 1600 ng/mL
[13]; intraperitoneal, favipiravir 600 mg/kg/d i.p. BID for 4 d, read-out: plasma trough level
  concentration at 16 h after last treatment: 1200 ± 300 ng/mL
[13]; favipiravir 300 mg/kg/d oral BID for 4 d, read-out: average plasma trough concentration
  concentration at 16 h after last treatment: 200 ± 30 ng/mL
[13]; preexposure prophylaxis with 300 and 1,000 mg/kg/d, dosing for 5 d
  favipiravir trough concentrations in sentinel hamsters vs infection model: similar
SARS-CoV-2 [14]; favipiravir 1,400 mg/kg/d TID started 1 d before intranasal infection
  viral replication in the lung: undetectable
SARS-CoV-2 [14]; favipiravir 1,400 mg/kg/d TID
  toxicity (weight loss from first day of treatment): high toxicity
SARS-CoV-2 [14]; favipiravir ~1,400 mg/kg/d TID
  virus infection in hamsters: significant reductions
SARS-CoV-2 [8]
  decrease of viral RNA in lung vs untreated infected hamsters: 1.0 log10 RNA copies per mg of lung tissue
  effect on viral RNA in ileum and stool: a smaller effect
  hamsters with infectious virus in the lungs: two
  histological lung pathology (H&E cumulative severity score): significant improvements
  reduction in viral RNA levels in the lungs: smaller inhibitory effect
  reduction of relative infectivity of lung virus particles: 136 fold and 172 fold
  relative lung viral particle infectivity (infectious particles / viral RNA genomes): did not decrease
  weight loss: over 5%
  weight loss, on average: 2%
SARS-CoV-2 [8]; ip
  toxicity signs in clinical presentation: No toxicity signs
[15]
  teratogenicity: teratogenic
[16]
  median plasma trough concentration: 25.9 µg/mL
COVID-19 [17]; COVID-19 patients with hypertension and/or diabetes and critically ill patients
  clinical recovery rate vs arbidol control group: not significantly different
COVID-19 [17]; COVID-19 patients with mild symptoms
  clinical recovery rate at day 7 vs arbidol control group: higher
